Experimental data: patent US20040063790A1, “Methods for inhibition of angiogenesis” (The Scripps Research Institute, priority 1996, published 2004)
[ ]: non-standard residue; d: D form.

Key:
[1] = tested on: UCLAP-3 tumors; experiment: Tumor regression in the CAM assay, UCLAP-3; format: in vivo, chick; conditions: 100 μg intravenously 18 hours post-implantation; FIG. 15
Method: (§1) As described in Example 5, in addition to visually assessing the effect of anti-αvβ3 antagonists on growth factor or tumor induced angiogenesis, the effect of the antagonists was also assessed by measuring any changes to the tumor mass following exposure. For this analysis, the tumor-induced angiogenesis CAM assay system was prepared as described in Example 4C. At the end of the 7 day incubation period, the resulting tumors were resected from the CAMs and trimmed free of any residual CAM tissue, washed with 1 ml of phosphate buffer saline and wet weights were determined for each tumor.
(§2) To further assess the effects of αvβ3 antagonists on tumor growth and survival, fragments of human melanoma and fragments of carcinomas of the lung, pancreas, and larynx were placed on CAMS of 10-day old embryos as described in Example 3A.
(§3) Additional tumor regression assays were performed with the αvβ3-reactive peptide 85189 (SEQ ID NO: 15) against 69601 as a control. The assays were performed as described above with the exception that 100 μg of peptide was intravenously injected into the CAM at 18 hours post-implantation. After 48 hours more, the tumors were then resected and wet weights were obtained.

[2] = tested on: growth factor-induced corneal angiogenesis; experiment: In vivo rabbit eye model assay; conditions: both vFGF and VEGF stimulated eyes
From the text: The effect of anti-αvβ3 antagonists on growth factor-induced angiogenesis can be observed in naturally transparent structures as exemplified by the cornea of the eye. […] Stimulators of angiogenesis, such as bFGF, when applied to the cornea induce the growth of new blood vessels from the rim of the cornea. Antagonists of angiogenesis, applied to the cornea, inhibit the growth of new blood vessels from the rim of the cornea. Thus, the cornea undergoes angiogenesis through an invasion of endothelial cells from the rim of the cornea into the tough collagen-packed corneal tissue which is easily visible. The rabbit eye model assay therefore provides an in vivo model for the direct observation of stimulation and inhibition of angiogenesis following the implantation of compounds directly into the cornea of the eye.
Each experiment consisted of eight rabbits in which one eye received a pellet comprising 100 nanograms (ng) bFGF and the other eye received a pellet comprising 1 microgram (μg) VEGF. The pellets were inserted into the corneal pocket as described above, and the cytokines subsequently stimulated the growth of new blood vessels into the cornea. […] After 7 days, the cornea were evaluated as described above.

[3] = tested on: FgM tumors; experiment: Tumor regression in the CAM assay, FgM; format: in vivo, chick; conditions: 100 μg intravenously 18 hours post-implantation; FIG. 17
Method: as §1, §2, §3

[4] = tested on: αvβ3-expressing CS-1 cells; experiment: Inhibition of cell attachment assay; format: cell-based, hamster
Method: As one means to determine integrin receptor specificity of the antagonists of this invention, inhibition of cell attachment assays were performed as described below.
Briefly, CS-1 hamster melanoma cells lacking expression of αvβ3 and αvβ5 were first transfected with an plasmid for expressing the […] as previously described by Filardo et al., J. Cell Biol., 130:441-450 (1995). Specificity of potential αvβ3 antagonists was determined by the ability to block the binding of αvβ3-expressing CS-1 cells to VN or laminin coated plates. As an example of a typical assay, the wells were first coated with 10 μg/ml substrate overnight. After rinsing and blocking with 1% heat-denatured BSA in PBS at room temperature for 30 minutes, peptide 85189 (SEQ ID NO: 15) over a concentration range of 0.0001 μM to 100 μM, was separately mixed with CS-1 cells for applying to wells with a cell number of 50, 000 cells/well. After a 10-15 minute incubation at 37° C., the solution containing the cells and peptides was discarded. The number of attached cells was then determined following staining with 1% crystal violet. Cell associated crystal violet was eluted by the addition of 100 microliters (μl) of 10% acetic acid. Cell adhesion was quantified by measuring the optical density of the eluted crystal violet at a wave length of 600 nm.

[5] = tested on: tumor-induced angiogenesis; experiment: CAM assay, tumor-induced angiogenesis, intravenous application; format: in vivo, chick; conditions: intravenous injection
Method: Angiogenesis was induced in the CAM assay system by direct apposition of a tumor fragment on the CAM. Preparation of the chick embryo CAM was identical to the procedure described above. Instead of a filter paper disk, a 50 milligram (mg) to 55 mg in weight fragment of one of human melanoma tumor M21-L, human lung carcinoma tumor UCLAP-3, human pancreatic carcinoma cell line FG (Cheresh et al., Cell 58:945-953, 1989), or human laryngeal carcinoma cell line HEp3, all of which are αvβ3 negative tumors, was placed on the CAM in an area originally devoid of blood vessels.
The M21-L human melanoma cell line, UCLAP-3 human lung carcinoma cell line, FG pancreatic carcinoma cell line, or HEp3 human laryngeal carcinoma cell line, all αvβ3 negative, were used to grow the solid human tumors on the CAMs of chick embryos. A single cell suspension of 8×10^6 M21-L, UCLAP-3, and FB or 5×10^5 HEp3 cells was first applied to the CAMs in a total volume of 30 μl of sterile HBSS. The windows were sealed with tape and the embryos were incubated for 7 days to allow growth of human tumor lesions. At the end of 7 days, now a 17-day embryo, the tumors were resected from the CAMs and trimmed free of surrounding CAM tissue. […]
The effects of peptide exposure to tumor-induced vasculature in the CAM assay system was also assessed. […]

Substance	effect on tumor weight, UCLAP-3 [1]	corneal blood vessel growth at 7 days [2]	effect on tumor weight, FgM [3]	inhibition of β3-expressing CS-1 cell adhesion to laminin ([4]; laminin)	inhibition of β3-expressing CS-1 cell adhesion to vitronectin ([4]; vitronectin)	inhibition of tumor-induced blood vessel formation [5]
cyclo (RADfV) (cyclo(RAD[dF]V); SMILES CC(C)[C@@H]1NC(=O)[C@@H](Cc2ccccc2)NC(=O)[C@H](CC(=O)O)NC(=O)[C@H](C)NC(=O)[C@H](CCCNC(=N)N)NC1=O) [Peptide 69601, reference compound]	lack of effect	substantial corneal blood vessel growth	lack of effect			
cyclo (RGDfV) [Peptide 66203]				but not laminin	inhibited	formation of blood vessels was inhibited
